In the CheMixHub ionic liquid set:

Experiment: xn = mol fraction of the nth substance listed

CCCC[n+]1ccn(C)c1.[Br-] + O=C(O)c1cccnc1 + O
viscosity [mPa·s], 100 kPa
Conditions	293.15 K	298.15 K	303.15 K	308.15 K	313.15 K	318.15 K
x2 = 0, x1 = 0.0009002	1.033	0.918	0.823	0.753	0.676	0.619
x2 = 0, x1 = 0.001799	1.057	0.938	0.84	0.758	0.689	0.631
x2 = 0, x1 = 0.002696	1.069	1	0.905	0.795	0.749	0.68

[Cl-].c1ccc(C[P+](c2ccccc2)(c2ccccc2)c2ccccc2)cc1 + OCCOCCO
101 kPa, x2 = 0.875
Conditions	electrical conductivity [S/m]	viscosity [mPa·s]
313.15 K	0.0935	64.2
353.15 K	0.212	17.1

CCCC[N+]1(C)CCCC1.FC(F)(F)C(F)(F)[P-](F)(F)(F)(C(F)(F)C(F)(F)F)C(F)(F)C(F)(F)F + FC(F)(F)c1ccccc1
101 kPa, x1 = 1
Conditions	electrical conductivity [S/m]	viscosity [mPa·s]
298.1 K	0.113	283
303 K	0.146	214
308.1 K	0.186	166.2
313 K	0.23	122.1
318.1 K	0.273	100.3
323 K	0.332	80.1

CCCC[n+]1ccn(C)c1.[Br-] + CCOCCO
viscosity [mPa·s], 100 kPa
Conditions	x1 = 0.1002	x1 = 0.2001	x1 = 0.3007	x1 = 0.3992	x1 = 0.5001	x1 = 0.5986	x1 = 0.7001	x1 = 0.8005	x1 = 0.9002	x1 = 1
298.15 K	12.5	42.5	88.9	139	191	253	356	541	880	1451
303.15 K	8.68	25.6	51.1	78.5	108	142	197	295	480	837
308.15 K	6.44	17.4	32.8	50	67	87.1	117	171	278	506
313.15 K	5.02	12.5	23	34.3	45.3	58.1	75.6	108	171	330

CCCC[n+]1ccn(C)c1.[Br-] + NC(N)=NCCC[C@H](N)C(=O)O + O
Conditions	viscosity [mPa·s]
313.15 K, 101.3 kPa, x2 = 0, x1 = 0.0007203	0.674

CC[P+](CC)(CC)CCOC.O=S(=O)([N-]S(=O)(=O)C(F)(F)F)C(F)(F)F + O=S(=O)([N-]S(=O)(=O)C(F)(F)F)C(F)(F)F.[Li+]
101.33 kPa
Conditions	electrical conductivity, 298.2 K [S/m]	electrical conductivity, 312.2 K [S/m]	electrical conductivity, 361.3 K [S/m]	viscosity, 298.2 K [mPa·s]	viscosity, 355.3 K [mPa·s]
x2 = 0.25	1	–	–	170	17
x2 = 0.39	–	0.8	1.5	–	–

CCCC[N+](CCCC)(CCCC)CCCC.[Cl-] + CCC(=O)O
Conditions	viscosity [mPa·s]
298 K, 100 kPa, x1 = 0.5	3300

CC(=O)[O-].CCCCC[n+]1ccccc1 + O
101 kPa
Conditions	electrical conductivity [S/m]
293.15 K, x1 = 0.9144	0.00606
293.15 K, x1 = 0.9163	0.006
293.15 K, x1 = 0.9314	0.00537
293.15 K, x1 = 0.948	0.00491
293.15 K, x1 = 0.9673	0.00428
293.15 K, x2 = 0.002318	0.00338
298.15 K, x1 = 0.9163	0.0103
298.15 K, x1 = 0.9314	0.00935
298.15 K, x1 = 0.948	0.00808
298.15 K, x1 = 0.9673	0.00703
298.15 K, x2 = 0.002318	0.00533
303.15 K, x1 = 0.9314	0.0157
303.15 K, x2 = 0.002318	0.00815
308.15 K, x1 = 0.9163	0.025
308.15 K, x1 = 0.9314	0.0221
313.15 K, x1 = 0.9163	0.0356
318.15 K, x1 = 0.9163	0.0509
318.15 K, x1 = 0.948	0.0396
318.15 K, x1 = 0.9673	0.0345
318.15 K, x2 = 0.002318	0.0267
323.15 K, x1 = 0.9163	0.0695
323.15 K, x2 = 0.002318	0.0339
328.15 K, x1 = 0.9314	0.081
333.15 K, x1 = 0.9144	0.13
338.15 K, x1 = 0.9144	0.175
338.15 K, x1 = 0.948	0.13
343.15 K, x1 = 0.9314	0.193

CS(C)=O + Cn1cc[n+](CCCN)c1.F[B-](F)(F)F
Conditions	viscosity [mPa·s]
328.15 K, 101 kPa, x2 = 0	1.249

CCCC[N+](CCCC)(CCCC)CCCC.[Cl-] + CC(C)[C@H](N)C(=O)O
100 kPa
Conditions	electrical conductivity, 313.15 K [S/m]	electrical conductivity, 323.15 K [S/m]	electrical conductivity, 333.15 K [S/m]	electrical conductivity, 343.15 K [S/m]	electrical conductivity, 353.15 K [S/m]	viscosity, 313.15 K [mPa·s]	viscosity, 323.15 K [mPa·s]	viscosity, 333.15 K [mPa·s]	viscosity, 343.15 K [mPa·s]	viscosity, 353.15 K [mPa·s]
x1 = 0.9	0.041	0.059	0.082	0.0989	0.123	800	460	258	145	82
x1 = 0.9091	0.029	0.041	0.055	0.0751	0.095	900	510	256	146	82
x1 = 0.9167	0.038	0.05	0.07	0.0901	0.116	587	313	196	105	63

CC[n+]1ccn(C)c1.[Cl-] + O=C[C@H](O)[C@@H](O)[C@H](O)[C@H](O)CO
373 K, 100 kPa
Conditions	viscosity [mPa·s]
x2 = 0	36
x2 = 0.0419	66

C[N+](C)(C)CCO.NCC(=O)[O-] + O
100 kPa
Conditions	viscosity [mPa·s]
298.15 K, x1 = 1	501
303.15 K, x1 = 0.6966	202
308.15 K, x1 = 0.1	4.34
308.15 K, x1 = 0.3996	60.2
313.15 K, x1 = 0.3996	49
313.15 K, x1 = 0.5004	71.1
318.15 K, x1 = 0.1	3.35
318.15 K, x1 = 0.3	25.63
318.15 K, x1 = 0.3996	40.89
318.15 K, x1 = 0.5004	56
318.15 K, x1 = 1	154.5

CCOCC[n+]1ccn(C)c1.O=S(=O)([N-]S(=O)(=O)C(F)(F)F)C(F)(F)F + O
101 kPa, x1 = 0.8424
Conditions	viscosity [mPa·s]
283 K	68.1
298.1 K	34

CCCC[N+](CCCC)(CCCC)CCCC.[Cl-] + OCCOCCOCCO
Conditions	electrical conductivity, 293.15 K [S/m]	electrical conductivity, 303.15 K [S/m]	electrical conductivity, 313.15 K [S/m]	electrical conductivity, 323.15 K [S/m]	electrical conductivity, 333.15 K [S/m]	viscosity, 293.15 K [mPa·s]	viscosity, 303.15 K [mPa·s]	viscosity, 313.15 K [mPa·s]	viscosity, 323.15 K [mPa·s]	viscosity, 333.15 K [mPa·s]
100 kPa, x1 = 0.1667	0.0683	0.099	0.141	0.196	0.268	126	82.6	55.6	38.4	27.1
100 kPa, x1 = 0.333	0.049	0.0739	0.109	0.156	0.219	277	179	119	81.4	56.8
101 kPa, x2 = 0.25	–	–	–	–	–	–	–	–	910	–

CC(=O)[O-].CCCC[NH2+]CCO + CCCC[n+]1ccn(C)c1.O=S(=O)([N-]S(=O)(=O)C(F)(F)F)C(F)(F)F
101 kPa
Conditions	viscosity [mPa·s]
283.15 K, x1 = 0.1012	127.4
283.15 K, x1 = 0.6987	1145
283.15 K, x1 = 0.8008	1850
283.15 K, x1 = 1	3634
288.15 K, x1 = 0.3002	164.2
288.15 K, x1 = 0.8008	1170
288.15 K, x1 = 0.901	1735
298.15 K, x1 = 0.2257	78.02
298.15 K, x1 = 0.8008	515
298.15 K, x1 = 0.901	731
298.15 K, x1 = 1	921
303.15 K, x1 = 0.4998	126.1
303.15 K, x1 = 0.8008	356
308.15 K, x1 = 0.3002	56.19
308.15 K, x1 = 1	423
313.15 K, x1 = 0.4998	73.4
313.15 K, x1 = 0.6987	130.9
313.15 K, x1 = 0.8008	182
313.15 K, x1 = 0.901	243.8
313.15 K, x1 = 1	297
318.15 K, x1 = 0.2257	32.2
318.15 K, x1 = 0.6987	98.5
318.15 K, x1 = 0.901	176.6
323.15 K, x1 = 0.6987	75.5
328.15 K, x1 = 0.2257	22.42
328.15 K, x1 = 0.6018	46.47
328.15 K, x1 = 0.901	98
338.15 K, x1 = 0.6987	37.11
343.15 K, x1 = 0.2257	14.05
343.15 K, x1 = 0.4998	20.65
343.15 K, x1 = 0.901	45.6
343.15 K, x1 = 1	51.9
348.15 K, x1 = 0.423	15.42
353.15 K, x1 = 0.901	29.26
353.15 K, x1 = 1	32.6
358.15 K, x1 = 0.3002	9.99
358.15 K, x1 = 0.423	11.46
358.15 K, x1 = 0.4998	12.68
363.15 K, x1 = 0.423	9.98
363.15 K, x1 = 1	21.43
368.15 K, x1 = 0.8008	14.29
368.15 K, x1 = 1	17.63
373.15 K, x1 = 0.3002	6.99
373.15 K, x1 = 0.423	7.73
373.15 K, x1 = 0.4998	8.35
373.15 K, x1 = 1	14.64

CC[n+]1ccn(C)c1.[Cl-] + NCCNCCN + OCCO
viscosity [mPa·s], 100 kPa
Conditions	293 K	303 K	313 K	323 K	333 K	343 K	353 K
x2 = 0.25, x3 = 0.25	64.8	43.2	29.5	20.6	14.7	10.7	8
x2 = 0.333, x3 = 0.333	144	91.9	60.4	40.8	28.2	19.9	14.3
x2 = 0.4, x3 = 0.2	106	68.1	44.7	30.2	20.9	14.7	10.6
x2 = 0.429, x3 = 0.143	103	66.5	44.2	30.1	21	15	10.9
x2 = 0.5, x3 = 0.25	124	80.8	53.9	36.9	25.8	18.5	13.4
